Results published in US9296741B2, “Bromodomain inhibitors” (priority 2012, dated 2016).
Like-named read-outs stand apart in the source and are kept apart here. Marks after values point to notes of the source that are not given here.

How the values were obtained:
[1] = Mouse liver microsome stability assay; type: in vitro ADME; conditions: male, CD1, mouse, microsomes, pH 7.4
[2] = Human liver microsome stability assay; type: in vitro ADME; conditions: both sexes, human, microsomes, pH 7.4
[3] = tested on: LPS induced IL-6 production; experiment: LPS (lipopolysaccharide) induced IL-6 production mouse assay; type: in vivo; conditions: Mus musculus, read-out: Inhibition of LPS induced IL-6 production in Mice, % inhibition at 3 mg/kg; 3 mg/kg oral, 1 h before LPS; serum IL-6 2 h after LPS
[4] = tested on: rat collagen induced arthritis (rCIA) paw swelling
[5] = tested on: MV4-11 human cancer cell xenograft; experiment: Xenograft efficacy study, MV4-11; type: in vivo, mouse; conditions: PO, QDx21, vehicle D
[6] = tested on: OPM-2 human multiple myeloma xenograft tumors; experiment: animal or person; conditions: Mus musculus; for change in vivo at 0.5 mg/kg / inhibition in vivo at 0.5 mg/kg: 0.5 mg/kg/day; for change in vivo at 1 mg/kg / inhibition in vivo at 1 mg/kg: 1 mg/kg/day
[7] = tested on: HT1080 human cancer cell xenograft; experiment: Xenograft efficacy study, HT1080; type: in vivo, mouse; conditions: PO, QDx14, vehicle H
[8] = tested on: breast cancer cell line MX-1; experiment: MX-1 cell line proliferation assay; type: cell-based, human; conditions: Homo sapiens, MX1, 72 h; MX-1 cells, 3-day proliferation, Cell Titer Glo; read-out: Cellular proliferation: EC50
[9] = tested on: SKM1 human cancer cell xenograft; experiment: Xenograft efficacy study, SKM1; type: in vivo, mouse; conditions: PO, QDx21, vehicle A
[10] = tested on: MX-1 human breast cancer xenograft tumors; experiment: Xenograft tumor growth inhibition assay, MX-1; type: in vivo, mouse
[11] = tested on: rat collagen induced arthritis (rCIA) paw swelling; experiment: animal or person; conditions: po, read-out: ED50, inhibition of inflammation in the arthritic paw
[12] = Rat liver microsome stability assay; type: in vitro ADME; conditions: rat liver microsomes (male Sprague-Dawley), 0.5 μM test compound, 0.25 mg/mL microsomal protein, pH 7.4, 37° C.; read-out: Stability in rat liver microsomes (t1/2 in minutes)
[13] = molecular target: human BRD4 first bromodomain (BDI_K57-E168) (Homo sapiens (Human), UniProt O60885); experiment: TR-FRET bromodomain binding assay, BRD4 first bromodomain
[14] = OPM-2, po, read-out: % TGI (tumor growth inhibition), OPM-2, PO, QDx21, vehicle A
[15] = MX-1, 0.3 mg/kg/day, PO, QD, vehicle F
[16] = MX-1, 1 mg/kg/day, PO, QD, vehicle F
[17] = MX-1, 3 mg/kg/day, PO, QD, vehicle F

half-life at 0.5 μM [1]: 0.683 h
half-life at 0.5 μM [2]: > 2 h
maximum plasma concentration at the ED50 ([4]; female, Lewis, rat, in vivo): 0.0068 µg/mL
maximum plasma concentration at the ED80 ([4]; female, Lewis, rat, in vivo): 0.0223 µg/mL
% removed from study ([5]; 0.2 mg/kg/day): 0%
% removed from study ([5]; 2 mg/kg/day): 0%
% removed from study ([7]; 0.3 mg/kg/day): 30%
% removed from study ([7]; 1 mg/kg/day): 10%
% removed from study ([7]; 3 mg/kg/day): 10%
EC50 [8]: 17.4 nM
% removed from study ([9]; 0.2 mg/kg/day): 0%
% removed from study ([9]; 2 mg/kg/day): 0%
half-life at 0.5 μM [12]: > 2 h
Ki [13]: 3.5 nM
SMILES: CCS(=O)(=O)Nc1ccc(Oc2ccc(F)cc2F)c(-c2cn(C)c(=O)c3[nH]ccc23)c1 [Example 36, N-[4-(2,4-difluorophenoxy)-3-(6-methyl-7-oxo-6,7-dihydro-1H-pyrrolo[2,3-c]pyridin-4-yl)phenyl]ethanesulfonamide]
inhibition in vivo at 3 mg/kg [3]: 78%
AUC of Paw Swelling, MEAN ([4]; rCIA, dosed at 0.03 mg/kg orally once daily day 10-17): 4.19 mL·days
AUC of Paw Swelling, MEAN ([4]; rCIA, dosed at 0.1 mg/kg orally once daily day 10-17): 3.66* ml-day
AUC of Paw Swelling, MEAN ([4]; rCIA, dosed at 0.3 mg/kg orally once daily day 10-17): 1.84** ml-day
AUC of Paw Swelling, MEAN ([4]; rCIA, dosed at 1.0 mg/kg orally once daily day 10-17): 0.70** ml-day
ED80, inhibition of inflammation in the arthritic paw ([4]; rCIA, oral once daily): 0.69 mg/kg
% TGD (tumor growth delay) ([5]; 0.2 mg/kg/day): 16*** %
% TGI (tumor growth inhibition) ([5]; 0.2 mg/kg/day): 22* %
% TGD (tumor growth delay) ([5]; 2 mg/kg/day): 94* %
% TGI (tumor growth inhibition) ([5]; 2 mg/kg/day): 81*** %
change in vivo at 0.5 mg/kg ([6]; OPM-2, ip, read-out: % TGD (tumor growth delay), OPM-2, IP, QDx21, vehicle F): 52%
change in vivo at 1 mg/kg ([6]; OPM-2, ip, read-out: % TGD (tumor growth delay), OPM-2, IP, Q4DX3, vehicle F): 80%
inhibition in vivo at 0.5 mg/kg ([6]; OPM-2, ip, read-out: % TGI (tumor growth inhibition), OPM-2, IP, QDx21, vehicle F): 49%
inhibition in vivo at 1 mg/kg ([6]; OPM-2, ip, read-out: % TGI (tumor growth inhibition), OPM-2, IP, Q4DX3, vehicle F): 61%
inhibition in vivo at 1 mg/kg ([6]; OPM-2, iv, read-out: % TGI (tumor growth inhibition), OPM-2, IV, Q4Dx3, vehicle C): 69%
inhibition in vivo at 3 mg/kg ([6]; OPM-2, po, 744 h, read-out: % TGI (tumor growth inhibition), OPM-2 xenograft, 3 mg/kg/day PO, QDx14, based on day 31): 90%
change in vivo at 0.5 mg/kg ([6]; OPM-2, po, read-out: % TGD (tumor growth delay), OPM-2, PO, QDx21, vehicle A): 101%
change in vivo at 1 mg/kg ([6]; OPM-2, po, read-out: % TGD (tumor growth delay), OPM-2, PO, BIDx21, vehicle A): 140%
change in vivo at 3 mg/kg ([6]; OPM-2, po, read-out: % TGD (tumor growth delay), OPM-2, 3 mg/kg/day, PO, QDx14, vehicle A): 21%
change in vivo at 3 mg/kg ([6]; OPM-2, po, read-out: % TGD (tumor growth delay), OPM-2, 3 mg/kg/day, PO, QDx21, vehicle A): 131%
change in vivo at 6 mg/kg ([6]; OPM-2, po, read-out: % TGD (tumor growth delay), OPM-2, 6 mg/kg/day, PO, Q2D x21 d, vehicle A): 84%
change in vivo at 7 mg/kg ([6]; OPM-2, po, read-out: % TGD (tumor growth delay), OPM-2, 7 mg/kg/day, PO, QD(3 on 4 off)x3, vehicle A): 97%
change in vivo at 10.5 mg/kg ([6]; OPM-2, po, read-out: % TGD (tumor growth delay), OPM-2, 10.5 mg/kg/day, PO, QD(2 on 5 off)x3, vehicle A): 94%
change in vivo at 3 mg/kg ([6]; OPM-2, po, read-out: % TGD (tumor growth delay), OPM-2 xenograft, 3 mg/kg/day PO, QDx14, endpoint of 1000 mm^3): 78%
inhibition in vivo at 0.5 mg/kg [6, 14]: 75%
inhibition in vivo at 1 mg/kg ([6]; OPM-2, po, read-out: % TGI (tumor growth inhibition), OPM-2, PO, BIDx21, vehicle A): 74%
inhibition in vivo at 1 mg/kg [6, 14]: 75%
inhibition in vivo at 3 mg/kg ([6]; OPM-2, po, read-out: % TGI (tumor growth inhibition), OPM-2, 3 mg/kg/day, PO, QDx14, vehicle A): 90%
inhibition in vivo at 3 mg/kg ([6]; OPM-2, po, read-out: % TGI (tumor growth inhibition), OPM-2, 3 mg/kg/day, PO, QDx21, vehicle A): 88%
inhibition in vivo at 6 mg/kg ([6]; OPM-2, po, read-out: % TGI (tumor growth inhibition), OPM-2, 6 mg/kg/day, PO, Q2D x21 d, vehicle A): 82%
inhibition in vivo at 7 mg/kg ([6]; OPM-2, po, read-out: % TGI (tumor growth inhibition), OPM-2, 7 mg/kg/day, PO, QD(3 on 4 off)x3, vehicle A): 81%
inhibition in vivo at 10.5 mg/kg ([6]; OPM-2, po, read-out: % TGI (tumor growth inhibition), OPM-2, 10.5 mg/kg/day, PO, QD(2 on 5 off)x3, vehicle A): 75%
% TGD (tumor growth delay) ([7]; 0.3 mg/kg/day): −1%
% TGI (tumor growth inhibition) ([7]; 0.3 mg/kg/day): 26%
% TGD (tumor growth delay) ([7]; 1 mg/kg/day): 3%
% TGI (tumor growth inhibition) ([7]; 1 mg/kg/day): 41* %
% TGD (tumor growth delay) ([7]; 3 mg/kg/day): 46*** %
% TGI (tumor growth inhibition) ([7]; 3 mg/kg/day): 47** %
% TGD (tumor growth delay) ([9]; 0.2 mg/kg/day): 93%
% TGI (tumor growth inhibition) ([9]; 0.2 mg/kg/day): 41* %
% TGD (tumor growth delay) ([9]; 2 mg/kg/day): 721*** %
% TGI (tumor growth inhibition) ([9]; 2 mg/kg/day): 86** %
% TGD (tumor growth delay) [10, 15]: 40%
% TGI (tumor growth inhibition) [10, 15]: 43** %
% removed from study [10, 15]: 0%
% TGI (tumor growth inhibition) [10, 16]: 60*** %
% removed from study [10, 16]: 0%
% TGI (tumor growth inhibition) [10, 17]: 76*** %
% removed from study [10, 17]: 0%
% TGI (tumor growth inhibition) ([10]; MX-1 xenograft, 0.3 mg/kg/day PO, QDx14, based on day 27): 43** %
% TGI (tumor growth inhibition) ([10]; MX-1 xenograft, 1 mg/kg/day PO, QDx14, based on day 27): 60*** %
% TGI (tumor growth inhibition) ([10]; MX-1 xenograft, 3 mg/kg/day PO, QDx14, based on day 27): 76*** %
ED50 [11]: 0.21 mg/kg
